Source: the RepoRT retention time repository

Experiment: Thermo Scientific Acclaim RSLC 120 C18, 100 × 2.1 mm, 2.2 µm, 30 °C, 0.2 to 0.48 mL/min, estimated dead time 1.1 min; A: 90% water + 10% methanol + 5 mM ammonium acetate; B: methanol + 5 mM ammonium acetate; gradient (min/%B) 0.1/1 3/39 14/99.9 16/99.9
Settings: stereoisomer not certain

LC retention time [min]	Structure (SMILES)
12.4	COC(=O)NC(C(=O)NC(Cc1ccccc1)C(O)CN(Cc1ccc(-c2ccccn2)cc1)NC(=O)C(NC(=O)OC)C(C)(C)C)C(C)(C)C (centres undefined)
2.62	S=c1nc[nH]c2nc[nH]c12
5.57	CC(C)N(C(=O)C(=O)O)c1ccccc1
1.46	NC(=O)c1ncn(C2OC(CO)C(O)C2O)n1 (centres undefined)
6.51	CCCCc1ncc(C=C(Cc2cccs2)C(=O)O)n1Cc1ccc(C(=O)O)cc1
9.01	CCOc1ccc(NC(=O)OC(C)C)cc1OCC
4.42	CCN1CCCC1CNC(=O)c1cc(S(N)(=O)=O)ccc1OC (centres undefined)
10.6	CCCCCC(=O)c1ccc(O)cc1O
5.06	Cc1cn(C2CC(N=[N+]=[N-])C(CO)O2)c(=O)[nH]c1=O (centres undefined)
8.96	CC(C(=O)O)c1ccc(C(=O)c2cccs2)cc1 (centres undefined)
13.4	COC1CC(OC2C(C)OC(OC3C(C)=CCC4CC(CC5(C=CC(C)C(C(C)C)O5)O4)OC(=O)C4C=C(C)C(O)C5OCC(=CC=CC3C)C45O)CC2OC)OC(C)C1O (centres undefined)
6.97	COCC(C)N(C(=O)C(=O)O)c1c(C)csc1C (centres undefined)
6.02	Cc1cccc(C)c1N(Cn1cccn1)C(=O)CS(=O)(=O)O
3.68	CC1(C)SC2C(NC(=O)C(N)c3ccc(O)cc3)C(=O)N2C1C(=O)O (centres undefined)
4.89	Cc1c(N(C)CS(=O)(=O)O)c(=O)n(-c2ccccc2)n1C
7.49	CCCNC(C)C(=O)Nc1ccccc1C (centres undefined)
8.29	Cc1cccc(Nc2ccncc2S(=O)(=O)NC(=O)NC(C)C)c1
8.42	CC12CCC3c4ccc(O)cc4CCC3C1CC(O)C2=O (centres undefined)
3.48	CC(C)(C)NCC(O)c1cc(O)cc(O)c1 (centres undefined)
11.3	CCC1OC(=O)C(C)C(OC2CC(C)(OC)C(O)C(C)O2)C(C)C(OC2OC(C)CC(NC)C2O)C(C)(OC)CC(C)C(=O)C(C)C(O)C1(C)O (centres undefined)
7.04	CCCC(CCC)C(=O)O
11.6	CCCCOc1cc(C(=O)NCCN(CC)CC)c2ccccc2n1

LC retention time [min]	Structure (SMILES)
11.4	CCCCCCCCCC(Oc1ccccc1)C(=O)O (centres undefined)
5.11	Nc1nc2ccccc2[nH]1
1.52	CCOS(=O)(=O)O
10	COc1cc(C=CC(=O)CC(=O)C=Cc2ccc(O)c(OC)c2)ccc1O
5.89	O=C(O)c1cc(-c2ccccc2)nc2ccccc12
5.08	CCN1CCCC1CNC(=O)c1cc(S(=O)(=O)CC)c(N)cc1OC (centres undefined)
1.46	CC(=O)NCCCS(=O)(=O)O
4.67	CNC(=C[N+](=O)[O-])NCCSCc1ccc(CN(C)C)o1
5.12	CC(C)(C)NCC(O)COc1cccc2c1CC(O)C(O)C2 (centres undefined)
7.73	CCCCC1C(=O)N(c2ccccc2)N(c2ccc(O)cc2)C1=O (centres undefined)
5.91	COc1ccc(CC(C)NCC(O)c2ccc(O)c(NC=O)c2)cc1 (centres undefined)
10.9	COCCCOc1cc(CC(CC(N)C(O)CC(C(=O)NCC(C)(C)C(N)=O)C(C)C)C(C)C)ccc1OC (centres undefined)
3.69	On1nnc2ccccc21
12.2	COc1ccc(C(=O)c2ccccc2O)cc1
8.26	O=C1NC(=O)C(c2ccccc2)(c2ccccc2)N1
2.04	Nc1ccc(O)c(C(=O)O)c1
1.35	CCOC1OC(C(=O)O)C(O)C(O)C1O (centres undefined)
6.54	CCNC(=O)C(C)OC(=O)Nc1ccccc1 (centres undefined)
10.8	CC12CCC3c4ccc(O)cc4CCC3C1CCC2O (centres undefined)
6.74	COC(=O)C1CC2=CC(=O)CCC2(C)C23OC2CC2(C)C(CCC24CCC(=O)O4)C13 (centres undefined)
3.24	CC(=O)Nc1nnc(S(N)(=O)=O)s1
6.46	CCCN(CCC)S(=O)(=O)c1ccc(C(=O)O)cc1

LC retention time [min]	Structure (SMILES)
7.82	CC12CCC3c4ccc(O)cc4CCC3C1CC(O)C2O (centres undefined)
4.79	Cc1ccc(S(N)(=O)=O)cc1
8.39	COc1ccc(Oc2ccc(NC(=O)N(C)C)cc2)cc1
4.36	O=C1NC(=O)C2CC=CCC12 (centres undefined)
6.56	CC(=O)CC(c1ccccc1)c1c(O)c2ccccc2oc1=O (centres undefined)
7.46	Cc1onc(-c2ccccc2)c1-c1ccc(S(N)(=O)=O)cc1
5.01	O=c1nccc[nH]1
8.17	CCCCC(=O)N(Cc1ccc(-c2ccccc2-c2nn[nH]n2)cc1)C(C(=O)O)C(C)C (centres undefined)
6.76	CCN(CC)C(=O)Nc1ccc(OCC(O)CNC(C)(C)C)c(C(C)=O)c1 (centres undefined)
7.69	CN(C)CCC=C1c2ccccc2COc2ccc(CC(=O)O)cc21
6.07	COCCN(C(=O)C(=O)O)c1c(C)cccc1C
8.19	CC(C)Nc1nc(NC(C)C)[nH]c(=O)n1
5.42	O=S(=O)(O)c1ccc2ccccc2c1
7.77	O=C(O)c1cccc(Oc2ccccc2)c1
9.5	CCCc1nn(C)c2c(=O)[nH]c(-c3cc(S(=O)(=O)N4CCN(C)CC4)ccc3OCC)nc12
8.47	NC(=O)N1c2ccccc2C2OC2c2ccccc21 (centres undefined)
4.51	Cc1c(NC=O)c(=O)n(-c2ccccc2)n1C
4.33	CC(=O)Nc1ccc(S(=O)(=O)Nc2cc(C)on2)cc1
11.4	CC(C)C1CCC(C(=O)NC(Cc2ccccc2)C(=O)O)CC1 (centres undefined)
8.19	CCc1cccc(C)c1N(C(=O)CS(=O)(=O)O)C(C)COC (centres undefined)
2.34	CC1=CC(=O)NS(=O)(=O)O1

Structure (SMILES)	LC retention time [min]
CCC1(c2ccccc2)C(=O)NC(=O)NC1=O	6.1
CCOP(=S)(OCC)SCS(=O)(=O)C(C)(C)C	8.98
CC1=NNC(=O)N(N=Cc2cccnc2)C1	4.13
CCCCc1c(C)nc(NCC)[nH]c1=O	8.39
CCNP(=S)(OC)OC(C)=CC(=O)OC(C)C (centres undefined)	9.75
C=CCC1(C(C)CCC)C(=O)NC(=O)NC1=O (centres undefined)	8.39
COP(=O)(NC(C)=O)SC (centres undefined)	3.09
CCC(C(=O)O)C1CCC(C)C(C(C)C(O)C(C)C(=O)C(CC)C2OC3(C=CC(O)C4(CCC(C)(C5CCC(O)(CC)C(C)O5)O4)O3)C(C)CC2C)O1 (centres undefined)	14.7
CCCC(C)C1(CC)C(=O)NC(=O)NC1=O (centres undefined)	7.92
NCC(O)c1ccc(O)cc1 (centres undefined)	1.96
CCC1(O)CCC2C3CCC4=CC(=O)CCC4C3CCC21C (centres undefined)	14
CC(C)(C)c1cc(C(C)(C)C)c(O)c(C(C)(C)C)c1	14.6
Cc1cc(C)cc(C(=O)N(NC(=O)c2ccc3c(c2C)CCCO3)C(C)(C)C)c1	9.91
COc1cc(OC)nc(NC(=O)NS(=O)(=O)c2ncccc2C(=O)N(C)C)n1	4.32
CSc1nnc(C(C)(C)C)c(=O)n1N	7.04
CC(C)CC(C)Nc1ccc(Nc2ccccc2)cc1 (centres undefined)	11.8
C=C(C)C1CCC(C)=CC1c1c(O)cc(CCCCC)cc1O (centres undefined)	13.7
CCCN(CCC)c1c([N+](=O)[O-])cc(S(N)(=O)=O)cc1[N+](=O)[O-]	10.2
CC(C)C1(C)N=C(c2ncccc2C(=O)O)NC1=O (centres undefined)	3.1
NC(=O)N=C(N)N	1.73
CC1CC2(C)C(CCC3C4CCC(O)C4(C)CCC32)CC1=O (centres undefined)	14.4
CC12CCC3C(CCC4CC(OC5OC(C(=O)O)C(O)C(O)C5O)CCC43C)C1CCC2=O (centres undefined)	10.2
Cc1ccccc1C(=O)Nc1cccc(OC(C)C)c1	9.58
CC(C)c1ccc(NC(=O)N(C)C)cc1	8.29
Cc1ccc(NC(=O)NC(C)(C)c2ccccc2)cc1	9.64

Structure (SMILES)	LC retention time [min]
CC12CCC3C(CC(O)C4=CC(=O)CCC43C)C1CCC2=O (centres undefined)	6.99
O=C(O)C(c1ccccc1)C1CCCCN1 (centres undefined)	5.27
CCC(C)C1(CC)C(=O)NC(=O)NC1=O (centres undefined)	6.83
COP(=S)(OC)Oc1ccc(S(N)(=O)=O)cc1	6.16
CCOP(=S)(NC(C)C)Oc1ccccc1C(=O)OC(C)C (centres undefined)	11.2
COC(=O)NS(=O)(=O)c1ccc(N)cc1	1.46
CC(C)N1C(=O)c2ccccc2NS1(=O)=O	4.49
COc1ccc(-c2ccccc2)cc1NNC(=O)OC(C)C	9.82
CC12CCC(O)CC1CCC1C2CCC2(C)C1CCC2(C)O (centres undefined)	14
CC1(c2ccc(Oc3ccccc3)cc2)OC(=O)N(Nc2ccccc2)C1=O (centres undefined)	11
CCCCCCCCCc1ccc(O)cc1	12.9
O=C1CN=C(c2ccccc2)c2c(sc3c2CCCC3)N1	9.91
CC12CCC3C(CCC4=C(O)C(=O)CCC43C)C1CCC2=O (centres undefined)	6.61
CCC(C)c1cc([N+](=O)[O-])cc([N+](=O)[O-])c1O (centres undefined)	7.92
O=c1[nH]c2c(c(=O)n1C1CCCCC1)CCC2	8.23
COCc1cnc(C2=NC(C)(C(C)C)C(=O)N2)c(C(=O)O)c1 (centres undefined)	3.74
NCC1(CC(=O)O)CCCCC1	4.08
CNCC(O)c1ccc(O)cc1 (centres undefined)	2.26
CCCCCCC(C)(C)c1ccc(C2CCCC(O)C2)c(O)c1 (centres undefined)	13.2
COC(=O)c1sccc1S(=O)(=O)NC(=O)Nc1nc(C)nc(OC)n1	4.52
COC(=O)Nc1nc2ccccc2[nH]1	5.8
Cc1occc1C(=O)Nc1ccccc1	7.54
CNC(=O)ON=C(C)C(C)S(C)(=O)=O (centres undefined)	3.67
CCOC(=O)c1cn2nc(OP(=S)(OCC)OCC)cc2nc1C	11.4
